Molecular target: T1, FAAH (Rattus norvegicus, UniProt P97612)
T1 construct: Preparation of Rat Brain Membranes Preparations (FAAH Enzyme Solution); from tissue; host or cells: rat cerebrum (brain membrane preparation)
T1 sequence (P97612 1-579): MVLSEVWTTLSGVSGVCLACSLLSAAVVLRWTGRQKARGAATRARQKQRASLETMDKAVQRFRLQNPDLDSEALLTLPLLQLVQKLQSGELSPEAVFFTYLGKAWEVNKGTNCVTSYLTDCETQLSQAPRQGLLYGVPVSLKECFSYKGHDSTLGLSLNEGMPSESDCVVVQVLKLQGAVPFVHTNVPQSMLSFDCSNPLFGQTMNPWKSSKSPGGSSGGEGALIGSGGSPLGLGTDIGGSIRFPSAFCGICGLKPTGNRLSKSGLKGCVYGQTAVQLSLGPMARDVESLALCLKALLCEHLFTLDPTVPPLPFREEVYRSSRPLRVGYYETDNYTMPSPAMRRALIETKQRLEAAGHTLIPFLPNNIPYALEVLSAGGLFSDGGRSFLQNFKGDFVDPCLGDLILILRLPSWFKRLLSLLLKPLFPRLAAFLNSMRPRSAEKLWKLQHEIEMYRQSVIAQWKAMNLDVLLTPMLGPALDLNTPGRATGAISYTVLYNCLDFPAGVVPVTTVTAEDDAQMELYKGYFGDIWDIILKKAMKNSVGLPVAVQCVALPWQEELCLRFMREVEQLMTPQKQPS
Test: Determination of FAAH inhibitory activity in rat (rat brain membrane preparations, [3H]-anandamide hydrolysis)
Format: biochemical
Conditions: rat brain membrane preparations; for inhibition at 0.1 µM: read-out: FAAH Inhibition, Inhibition Rate at 100 nM; for IC50: test substance 0.1 nM to 1 μM, read-out: FAAH Inhibition IC50
Method in brief: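 Rat cerebrum membranes (100 μg/mL protein) preincubated 10 min at 37 °C with compound (1% DMSO) in pH 7.6 Tris buffer with 1.5% BSA. Substrate 2 nM [3H]-anandamide plus 2 μM anandamide added for 10 min at 37 °C. [3H]-ethanolamine in the aqueous phase after chloroform/methanol extraction was scintillation counted; IC50 over 0.1 nM–1 μM.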

Compound	inhibition at 0.1 µM (100 nM test substance) [%]	IC50 [nM]	FAAH Inhibition, Inhibition Rate at 100 nM (100 nM test substance, 0.1 µM) [%]
COCc1ncc2c(n1)n(C)c(=O)n2C(=O)N1CC[C@H](Oc2ccccc2)C1 [Example 477]	88	26	
COCc1ncc2c(n1)n(C)c(=O)n2C(=O)N1CC(Oc2ccccc2C)C1 [Example 478]	46	118	
COCc1ncc2c(n1)n(C)c(=O)n2C(=O)N1CC(Oc2ccccc2F)C1 [Example 479, 7-{[3-(2-Fluorophenoxy)azetidin-1-yl]carbonyl}-2-(methoxymethyl)-9-methyl-7,9-dihydro-8H-purine-8-one]	50	101	
COCc1ncc2c(n1)n(C)c(=O)n2C(=O)N1CC[C@@H](Oc2ccc(F)cc2)C1 [Example 480, 7-{[(3R)-3-(4-Fluorophenoxy)pyrrolidin-1-yl]carbonyl}-2-(methoxymethyl)-9-methyl-7,9-dihydro-8H-purine-8-one]	88	83	
COCc1ncc2c(n1)n(C)c(=O)n2C(=O)N1CC[C@@H](Oc2ccccc2)C1 [Example 488, 2-(Methoxymethyl)-9-methyl-7-{[(3R)-3-phenoxypyrrolidin-1-yl]carbonyl}-7,9-dihydro-8H-purine-8-one]	74	43	
CN(C)C(=O)n1c(=O)n(C)c2cnc(CCc3ccc(OC(F)F)cc3)nc21 [Example 493, 2-{2-[4-(difluoromethoxy)phenyl]ethyl}-N,N,7-trimethyl-8-oxo-7,8-dihydro-9H-purine-9-carboxamide]	79	27	
CN(C)C(=O)n1c(=O)n(C)c2cnc(CCc3ccc(F)cc3F)nc21 [Example 506, 2-[2-(2,4-Difluorophenyl)ethyl]-N,N,7-trimethyl-8-oxo-7,8-dihydro-9H-purine-9-carboxamide]	94	28	
CN(C)C(=O)n1c(=O)n(C)c2cnc(CCc3cccc(OCC(F)F)c3)nc21 [Example 530, 2-{2-[3-(2,2-Difluoroethoxy)phenyl]ethyl}-N,N,7-trimethyl-8-oxo-7,8-dihydro-9H-purine-9-carboxamide]	66	52	
CN(C)C(=O)n1c(=O)n(C)c2cnc(CCc3ccc(F)cc3)nc21 [Example 533, 2-[2-(4-Fluorophenyl)ethyl]-N,N,7-trimethyl-8-oxo-7,8-dihydro-9H-purine-9-carboxamide]	53	99	
CN(C)C(=O)n1c(=O)n(C)c2cnc(CCc3ccc(OCC(F)F)cc3)nc21 [Example 538, 2-{2-[4-(2,2-Difluoroethoxy)phenyl]ethyl}-N,N,7-trimethyl-8-oxo-7,8-dihydro-9H-purine-9-carboxamide]	51		
Cn1c(=O)n(C(=O)N2CCC2)c2nc(CCc3cc(F)cc(F)c3)ncc21 [Example 580, 9-(Azetidin-1-ylcarbonyl)-2-[2-(3,5-difluorophenyl)ethyl]-7-methyl-7,9-dihydro-8H-purine-8-one]	81	25	
Cn1c(=O)n(C(=O)N2CCC2)c2nc(CCc3ccccc3F)ncc21 [Example 583, 9-(Azetidin-1-ylcarbonyl)-2-[2-(2-fluorophenyl)ethyl]-7-methyl-7,9-dihydro-8H-purine-8-one]	87	94	
Cn1c(=O)n(C(=O)N2CCC2)c2nc(CCc3ccc(F)cc3)ncc21 [Example 587, 9-(Azetidin-1-ylcarbonyl)-2-[2-(4-fluorophenyl)ethyl]-7-methyl-7,9-dihydro-8H-purine-8-one]	68	51	

Results, then the molecule that gave them:

inhibition at 0.1 µM (100 nM test substance) [%]	IC50 [nM]	FAAH Inhibition, Inhibition Rate at 100 nM (100 nM test substance, 0.1 µM) [%]	Compound
102	3		COCc1ncc2c(n1)n(C)c(=O)n2C(=O)N1CC[C@H](Oc2ccc(F)cc2)C1 [Example 481]
104	10		COCc1ncc2c(n1)n(C)c(=O)n2C(=O)N1CC[C@H](Oc2cccc(F)c2)C1 [Example 482, 7-{[(3S)-3-(3-Fluorophenoxy)pyrrolidin-1-yl]carbonyl}-2-(methoxymethyl)-9-methyl-7,9-dihydro-8H-purine-8-one]
110	10		COCc1ncc2c(n1)n(C)c(=O)n2C(=O)N1CC[C@H](Oc2ccccc2F)C1 [Example 483, 7-{[(3S)-3-(2-Fluorophenoxy)pyrrolidin-1-yl]carbonyl}-2-(methoxymethyl)-9-methyl-7,9-dihydro-8H-purine-8-one]
86	9		COCc1ncc2c(n1)n(C)c(=O)n2C(=O)N1CC[C@H](Oc2ccc(C)cc2)C1 [Example 484, 2-(Methoxymethyl)-9-methyl-7-{[(3S)-3-(4-methylphenoxy)pyrrolidin-1-yl]carbonyl}-7,9-dihydro-8H-purine-8-one]
112	3		COCc1ncc2c(n1)n(C)c(=O)n2C(=O)N1CC[C@H](Oc2cccc(C)c2)C1 [Example 485, 2-(Methoxymethyl)-9-methyl-7-{[(3S)-3-(3-methylphenoxy)pyrrolidin-1-yl]carbonyl}-7,9-dihydro-8H-purine-8-one]
113	2		COCc1ncc2c(n1)n(C)c(=O)n2C(=O)N1CC[C@H](Oc2ccccc2C)C1 [Example 486, 2-(Methoxymethyl)-9-methyl-7-{[(3S)-3-(2-methylphenoxy)pyrrolidin-1-yl]carbonyl}-7,9-dihydro-8H-purine-8-one]
99	15		COCc1ncc2c(n1)n(C)c(=O)n2C(=O)N1CC[C@@H](Oc2cccc(Cl)c2)C1 [Example 487, 7-{[(3R)-3-(3-Chlorophenoxy)pyrrolidin-1-yl]carbonyl}-2-(methoxymethyl)-9-methyl-7,9-dihydro-8H-purine-8-one]
98	1		COCc1ncc2c(n1)n(C)c(=O)n2C(=O)N1CC[C@H](Oc2ccc(Cl)cc2)C1 [Example 489, 7-{[(3S)-3-(4-Chlorophenoxy)pyrrolidin-1-yl]carbonyl}-2-(methoxymethyl)-9-methyl-7,9-dihydro-8H-purine-8-one]
97	2		COCc1ncc2c(n1)n(C)c(=O)n2C(=O)N1CC[C@H](Oc2cccc(Cl)c2)C1 [Example 490, 7-{[(3S)-3-(3-Chlorophenoxy)pyrrolidin-1-yl]carbonyl}-2-(methoxymethyl)-9-methyl-7,9-dihydro-8H-purine-8-one]
100	2		COCc1ncc2c(n1)n(C)c(=O)n2C(=O)N1CC[C@H](Oc2ccccc2Cl)C1 [Example 491, 7-{[(3S)-3-(2-Chlorophenoxy)pyrrolidin-1-yl]carbonyl}-2-(methoxymethyl)-9-methyl-7,9-dihydro-8H-purine-8-one]
103	2		COCc1ncc2c(n1)n(C)c(=O)n2C(=O)N1CC(COc2ccc(F)cc2)C1 [Example 492, 7-({3-[(4-Fluorophenoxy)methyl]azetidin-1-yl}carbonyl)-2-(methoxymethyl)-9-methyl-7,9-dihydro-8H-purine-8-one]
98	11		Cc1ccc(CCc2ncc3c(n2)n(C(=O)N(C)C)c(=O)n3C)cc1 [Example 494, N,N,7-Trimethyl-2-[2-(4-methylphenyl)ethyl]-8-oxo-7,8-dihydro-9H-purine-9-carboxamide]
	25	94	CN(C)C(=O)n1c(=O)n(C)c2cnc(CCc3cc(F)cc(F)c3)nc21 [Example 497, 2-[2-(3,5-Difluorophenyl)ethyl]-N,N,7-trimethyl-8-oxo-7,8-dihydro-9H-purine-9-carboxamide]
88	17		CN(C)C(=O)n1c(=O)n(C)c2cnc(CCc3ccc(C(F)(F)F)cc3)nc21 [Example 540, N,N,7-Trimethyl-8-oxo-2-{2-[4-(trifluoromethyl)phenyl]ethyl}-7,8-dihydro-9H-purine-9-carboxamide]
98	15		CN(C)C(=O)n1c(=O)n(C)c2cnc(CCc3cccc(OCC(F)(F)F)c3)nc21 [Example 552, N,N,7-Trimethyl-8-oxo-2-{2-[3-(2,2,2-trifluoroethoxy)phenyl]ethyl}-7,8-dihydro-9H-purine-9-carboxamide]
97	9		CN(C)C(=O)n1c(=O)n(C)c2cnc(CCc3ccc(OCC(F)(F)F)cc3)nc21 [Example 553, N,N,7-Trimethyl-8-oxo-2-{2-[4-(2,2,2-trifluoroethoxy)phenyl]ethyl}-7,8-dihydro-9H-purine-9-carboxamide]
110	10		Cn1c(=O)n(C(=O)N2CCC2)c2nc(CCc3ccc(C(F)F)cc3)ncc21 [Example 576, 9-(Azetidin-1-ylcarbonyl)-2-{2-[4-(difluoromethyl)phenyl]ethyl}-7-methyl-7,9-dihydro-8H-purine-8-one]

Source: patent US8735406B2, “8-oxodihydropurine derivative” (Dainippon Sumitomo Pharma Co., Ltd., priority 2009, dated 2014)
